The results in this text go back to ChEMBL document CHEMBL3046644, “Biological activity of tropolone” (Biol Pharm Bull, 2003).

The target in one experiment is T1, Collagenase ColG (Clostridium histolyticum, UniProt Q9X721).
T1 sequence (Q9X721 whole entry): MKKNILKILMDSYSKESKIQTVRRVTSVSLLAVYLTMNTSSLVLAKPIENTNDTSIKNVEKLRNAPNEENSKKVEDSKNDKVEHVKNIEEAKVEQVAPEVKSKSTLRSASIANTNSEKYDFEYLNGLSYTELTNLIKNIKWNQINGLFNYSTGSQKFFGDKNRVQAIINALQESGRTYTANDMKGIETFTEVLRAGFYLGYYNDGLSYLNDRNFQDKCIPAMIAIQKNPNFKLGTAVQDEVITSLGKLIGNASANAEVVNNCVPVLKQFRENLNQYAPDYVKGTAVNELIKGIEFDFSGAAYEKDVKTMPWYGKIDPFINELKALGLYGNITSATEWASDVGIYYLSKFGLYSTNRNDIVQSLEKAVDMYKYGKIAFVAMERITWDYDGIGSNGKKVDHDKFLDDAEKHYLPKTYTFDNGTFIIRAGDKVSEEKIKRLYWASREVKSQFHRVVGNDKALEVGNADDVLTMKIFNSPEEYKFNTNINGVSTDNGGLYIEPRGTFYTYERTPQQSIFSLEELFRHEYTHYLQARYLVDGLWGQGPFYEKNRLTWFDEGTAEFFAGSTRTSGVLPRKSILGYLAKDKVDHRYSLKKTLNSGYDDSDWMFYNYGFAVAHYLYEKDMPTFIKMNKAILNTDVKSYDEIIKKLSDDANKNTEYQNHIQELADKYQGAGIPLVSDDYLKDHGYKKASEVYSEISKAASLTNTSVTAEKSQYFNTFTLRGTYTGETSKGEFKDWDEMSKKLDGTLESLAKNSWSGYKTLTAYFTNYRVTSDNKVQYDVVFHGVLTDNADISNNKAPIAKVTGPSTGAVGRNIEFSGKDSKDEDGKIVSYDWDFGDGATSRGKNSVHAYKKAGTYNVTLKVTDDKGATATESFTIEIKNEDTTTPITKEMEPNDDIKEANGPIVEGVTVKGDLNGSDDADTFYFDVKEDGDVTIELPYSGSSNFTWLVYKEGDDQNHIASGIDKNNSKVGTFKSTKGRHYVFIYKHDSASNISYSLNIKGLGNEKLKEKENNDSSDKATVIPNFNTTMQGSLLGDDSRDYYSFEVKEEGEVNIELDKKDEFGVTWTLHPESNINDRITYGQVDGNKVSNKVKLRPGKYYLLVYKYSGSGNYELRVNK
The experiment in a line: Inhibition of Clostridium histolyticum collagenase after 15 min. The arrangement: species or system Hathewaya histolytica.

A further experiment addresses T2, Thermolysin (Bacillus thermoproteolyticus, UniProt P00800).
T2 sequence (P00800 whole entry): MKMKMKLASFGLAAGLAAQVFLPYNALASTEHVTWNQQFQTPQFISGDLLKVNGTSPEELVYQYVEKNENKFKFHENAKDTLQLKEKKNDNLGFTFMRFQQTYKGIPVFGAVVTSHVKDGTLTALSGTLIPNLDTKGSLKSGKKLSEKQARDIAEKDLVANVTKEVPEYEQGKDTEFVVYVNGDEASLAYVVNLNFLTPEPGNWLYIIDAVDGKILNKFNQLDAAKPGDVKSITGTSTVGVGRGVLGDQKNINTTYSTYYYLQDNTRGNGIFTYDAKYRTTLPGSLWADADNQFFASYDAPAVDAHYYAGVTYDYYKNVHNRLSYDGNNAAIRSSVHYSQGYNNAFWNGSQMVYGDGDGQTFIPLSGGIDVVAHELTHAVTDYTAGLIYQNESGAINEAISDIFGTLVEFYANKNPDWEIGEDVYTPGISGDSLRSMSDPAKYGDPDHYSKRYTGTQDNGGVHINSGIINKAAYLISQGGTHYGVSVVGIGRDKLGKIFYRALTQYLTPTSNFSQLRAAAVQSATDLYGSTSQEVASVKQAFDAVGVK
The experiment in a line: Inhibition of Bacillus thermoproteolyticus thermolysin after 15 min.

A further experiment has as its target T3, Carboxypeptidase A1 (Bos taurus, UniProt P00730).
T3 sequence (P00730 whole entry): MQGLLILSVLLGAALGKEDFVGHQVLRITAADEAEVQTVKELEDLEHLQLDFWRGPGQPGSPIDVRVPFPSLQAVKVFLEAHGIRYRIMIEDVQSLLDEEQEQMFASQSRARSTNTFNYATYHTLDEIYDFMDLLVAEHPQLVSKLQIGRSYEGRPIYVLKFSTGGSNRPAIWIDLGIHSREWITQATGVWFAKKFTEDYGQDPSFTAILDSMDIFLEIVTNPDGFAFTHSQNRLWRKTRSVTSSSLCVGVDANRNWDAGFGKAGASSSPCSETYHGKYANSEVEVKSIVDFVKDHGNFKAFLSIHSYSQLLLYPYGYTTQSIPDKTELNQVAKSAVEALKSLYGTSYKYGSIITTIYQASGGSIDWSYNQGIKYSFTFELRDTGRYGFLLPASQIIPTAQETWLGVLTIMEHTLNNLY
The experiment in a line: Inhibition of Bos taurus (bovine) pancrease carboxypeptidase A after 15 min.

Experiment [1] concerns Coptotermes formosanus. The experiment in a line: Insecticidal activity against Coptotermes formosanus assessed as mortality at 0.00005 g/m'2 after 24 hr. In kind it is functional.
Experiment [2] relates to Coptotermes formosanus. The experiment in a line: Insecticidal activity against Coptotermes formosanus assessed as mortality at 0.00050 g/m'2 after 24 hr. In kind it is functional.
In experiment [3] the test system is Coptotermes formosanus. As to the kind of experiment: Insecticidal activity against Coptotermes formosanus assessed as mortality at 0.00025 g/m'2 after 48 hr. Format: functional.
Experiment [4] concerns Coptotermes formosanus. As to the kind of experiment: Insecticidal activity against Coptotermes formosanus assessed as mortality at 0.00010 g/m'2 after 24 hr. In kind it is functional.
The subject of experiment [5] is Coptotermes formosanus. The experiment in a line: Insecticidal activity against Coptotermes formosanus assessed as mortality at 0.00005 g/m'2 after 48 hr. Format: functional.
For experiment [6], the system named is Coptotermes formosanus. The experiment in a line: Insecticidal activity against Coptotermes formosanus assessed as mortality at 0.00025 g/m'2 after 24 hr. In kind it is functional.
The test system of experiment [7] is Coptotermes formosanus. The experiment in a line: Insecticidal activity against Coptotermes formosanus assessed as mortality at 0.00001 g/m'2 after 24 hr. Format: functional.
The subject of experiment [8] is Coptotermes formosanus. The experiment in a line: Insecticidal activity against Coptotermes formosanus assessed as mortality at 0.00050 g/m'2 after 48 hr. In kind it is functional.
Experiment [9] concerns Coptotermes formosanus. As to the kind of experiment: Insecticidal activity against Coptotermes formosanus assessed as mortality at 0.00010 g/m'2 after 48 hr. In kind it is functional.
Experiment [10] relates to Coptotermes formosanus. The experiment in a line: Insecticidal activity against Coptotermes formosanus assessed as mortality. Format: functional.
Experiment [11] relates to Dermatophagoides farinae. The experiment in a line: Insecticidal activity against Dermatophagoides farinae assessed as mortality at 1 g/m'2 after 24 hr by clip method. Format: functional.
The subject of experiment [12] is Tyrophagus putrescentiae. As to the kind of experiment: Insecticidal activity against Tyrophagus putrescentiae assessed as mortality at 0.10 g/m'2 after 24 hr by clip method. In kind it is functional.
The test system of experiment [13] is Dermatophagoides farinae. As to the kind of experiment: Insecticidal activity against Dermatophagoides farinae assessed as mortality at 0.10 g/m'2 after 24 hr by clip method. Format: functional.
Experiment [14] deals with Dermatophagoides farinae. The experiment in a line: Insecticidal activity against Dermatophagoides farinae assessed as mortality at 0.50 g/m'2 after 24 hr by clip method. Format: functional.
Experiment [15] relates to Tyrophagus putrescentiae. The experiment in a line: Insecticidal activity against Tyrophagus putrescentiae assessed as mortality at 0.50 g/m'2 after 24 hr by clip method. Format: functional.
Experiment [16] relates to Tyrophagus putrescentiae. The experiment in a line: Insecticidal activity against Tyrophagus putrescentiae assessed as mortality at 0.20 g/m'2 after 24 hr by clip method. Format: functional.
For experiment [17], the system named is Tyrophagus putrescentiae. As to the kind of experiment: Insecticidal activity against Tyrophagus putrescentiae assessed as mortality at 1 g/m'2 after 24 hr by clip method. Format: functional.
The test system of experiment [18] is Tyrophagus putrescentiae. The experiment in a line: Insecticidal activity against Tyrophagus putrescentiae assessed as mortality after 24 hr by clip method. In kind it is functional.
The subject of experiment [19] is Dermatophagoides farinae. As to the kind of experiment: Insecticidal activity against Dermatophagoides farinae assessed as mortality after 24 hr by clip method. In kind it is functional.
Experiment [20] concerns Dermatophagoides farinae. As to the kind of experiment: Insecticidal activity against Dermatophagoides farinae assessed as mortality at 0.20 g/m'2 after 24 hr by clip method. Format: functional.

The IC50 is the concentration that gives 50% inhibition. Consider `c1cnc2c(c1)ccc1cccnc12` [PHENANTHROLINE], for which the IC50 on Collagenase ColG turned out to be 185 µM; at Thermolysin, 360 µM; against Carboxypeptidase A1, 422 µM.

For orientation: mortality means the percentage killed. For `CCOP(=S)(OCC)Oc1nc(Cl)c(Cl)cc1Cl` [CHLORPYRIFOS], the mortality in the experiment on Coptotermes formosanus [1] is recorded as 10%; in the experiment with Coptotermes formosanus [2] it was 100%; in the experiment with Coptotermes formosanus [3], 100%; with Coptotermes formosanus [4], 25%; in the experiment with Coptotermes formosanus [5], 40%; in the experiment on Coptotermes formosanus [6] it was 60%. Also, the mortality is listed as 0% in the experiment with Coptotermes formosanus [7], 100% with Coptotermes formosanus [8] and 75% in the experiment with Coptotermes formosanus [9]. Also, the LC50 in the experiment on Coptotermes formosanus [10] is on record as 0.00016 g/m2.

Consider `CCN(CC)C(=O)c1cccc(C)c1` [DIETHYLTOLUAMIDE], for which the mortality in the experiment with Dermatophagoides farinae [11] is reported as 45.5%; with Tyrophagus putrescentiae [12], 0%; in the experiment on Dermatophagoides farinae [13], 0%; in the experiment with Dermatophagoides farinae [14], 20.5%; in the experiment with Tyrophagus putrescentiae [15], 18.9%; with Tyrophagus putrescentiae [16], 4.5%. Besides, the mortality is on record as 67.1% in the experiment with Tyrophagus putrescentiae [17] and 7.2% with Dermatophagoides farinae [20]. The LC50 came to 1.46 g/m2 in the experiment with Tyrophagus putrescentiae [18] and 0.79 g/m2 in the experiment with Dermatophagoides farinae [19].
